Test results from patent US20230017045A1, “PYRIDINE AND PYRIMIDINE CARBOXYLATE HERBICIDES AND METHODS OF USE THEREOF” (Dow AgroSciences LLC, priority 2017, published 2023).

What follows are molecules tested on test plant species (assay: Post-emergent herbicidal activity test (greenhouse, foliar spray, visual growth reduction)). Conditions: post-emergence, 336 h, ALOMY: blackgrass (Alopecurus myosuroides), 140 g ai/ha, 14 days after application, read-out: Visual Growth Reduction (%) 14 Days After Application, ALOMY.
Format: in vivo
In short: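 Greenhouse plants at first–second true leaf stage sprayed overhead at 187 L/ha with compound in acetone/water/isopropanol/DMSO/crop oil/X-77 carrier; controls received solvent blank. Injury rated visually after 14 d on a 0–100% scale versus untreated and control plants, converted to growth reduction.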

First: COC(=O)c1nc(-c2ccc(Cl)cc2)c(N)cc1Cl [F72, methyl 5-amino-3-chloro-6-(4-chlorophenyl)picolinate]
Second: COC(=O)c1nc(-c2cc3c(cc2Cl)OC(F)(F)O3)ccc1Cl [F124, Methyl 3-chloro-6-(6-chloro-2,2-difluorobenzo[d] [1,3]dioxol-5-yl)picolinate]
The pest or weed control at 140 g/ha of the first is lower: 0 to 29% for the first, 45 to 59% for the second.

Same assay, conditions: post-emergence, 336 h, AMARE: redroot pigweed (Amaranthus retroflexus), 140 g ai/ha, 14 days after application, read-out: Visual Growth Reduction (%) 14 Days After Application, AMARE

First: COC(=O)c1nc(-c2ccc(Cl)cc2)c(N)cc1Cl [F72, methyl 5-amino-3-chloro-6-(4-chlorophenyl)picolinate]
Second: COC(=O)c1nc(-c2cc3c(cc2Cl)OC(F)(F)O3)ccc1Cl [F124, Methyl 3-chloro-6-(6-chloro-2,2-difluorobenzo[d] [1,3]dioxol-5-yl)picolinate]
The pest or weed control at 140 g/ha of the first is lower: 0 to 29% for the first, 75 to 84% for the second.

Same assay, conditions: post-emergence, 336 h, AVEFA: wild oat (Avena fatua), 140 g ai/ha, 14 days after application, read-out: Visual Growth Reduction (%) 14 Days After Application, AVEFA

Compared with `COC(=O)c1nc(-c2ccc(Cl)cc2)c(N)cc1Cl` [F72, methyl 5-amino-3-chloro-6-(4-chlorophenyl)picolinate], `COC(=O)c1nc(-c2cc3c(cc2Cl)OC(F)(F)O3)ccc1Cl` [F124, Methyl 3-chloro-6-(6-chloro-2,2-difluorobenzo[d] [1,3]dioxol-5-yl)picolinate] is higher in pest or weed control at 140 g/ha: 0 to 29% for the first, 30 to 44% for the second.

Same assay, conditions: post-emergence, 336 h, CHEAL: lambsquarters (Chenopodium album), 140 g ai/ha, 14 days after application, read-out: Visual Growth Reduction (%) 14 Days After Application, CHEAL

First: COC(=O)c1nc(-c2ccc(Cl)cc2)c(N)cc1Cl [F72, methyl 5-amino-3-chloro-6-(4-chlorophenyl)picolinate]
Second: COC(=O)c1nc(-c2cc3c(cc2Cl)OC(F)(F)O3)ccc1Cl [F124, Methyl 3-chloro-6-(6-chloro-2,2-difluorobenzo[d] [1,3]dioxol-5-yl)picolinate]
The pest or weed control at 140 g/ha of the first is lower: 0 to 29% for the first, 85 to 94% for the second.

Same assay, conditions: post-emergence, 336 h, CIRAR: canada thistle (Cirsium arvense), 140 g ai/ha, 14 days after application, read-out: Visual Growth Reduction (%) 14 Days After Application, CIRAR

Compared with `COC(=O)c1nc(-c2ccc(Cl)cc2)c(N)cc1Cl` [F72, methyl 5-amino-3-chloro-6-(4-chlorophenyl)picolinate], `COC(=O)c1nc(-c2cc3c(cc2Cl)OC(F)(F)O3)ccc1Cl` [F124, Methyl 3-chloro-6-(6-chloro-2,2-difluorobenzo[d] [1,3]dioxol-5-yl)picolinate] is higher in pest or weed control at 140 g/ha: 0 to 29% for the first, 75 to 84% for the second.

Same assay, conditions: post-emergence, 336 h, CYPES: yellow nutsedge (Cyperus esculentus), 140 g ai/ha, 14 days after application, read-out: Visual Growth Reduction (%) 14 Days After Application, CYPES

`COC(=O)c1nc(-c2ccc(Cl)cc2)c(N)cc1Cl` [F72, methyl 5-amino-3-chloro-6-(4-chlorophenyl)picolinate] and `COC(=O)c1nc(-c2cc3c(cc2Cl)OC(F)(F)O3)ccc1Cl` [F124, Methyl 3-chloro-6-(6-chloro-2,2-difluorobenzo[d] [1,3]dioxol-5-yl)picolinate] fall in the same range of pest or weed control at 140 g/ha: 0 to 29% for the first, 0 to 29% for the second.

Same assay, conditions: post-emergence, 336 h, DIGSA: crabgrass (Digitaria sanguinalis), 140 g ai/ha, 14 days after application, read-out: Visual Growth Reduction (%) 14 Days After Application, DIGSA

Compared with `COC(=O)c1nc(-c2ccc(Cl)cc2)c(N)cc1Cl` [F72, methyl 5-amino-3-chloro-6-(4-chlorophenyl)picolinate], `COC(=O)c1nc(-c2cc3c(cc2Cl)OC(F)(F)O3)ccc1Cl` [F124, Methyl 3-chloro-6-(6-chloro-2,2-difluorobenzo[d] [1,3]dioxol-5-yl)picolinate] is higher in pest or weed control at 140 g/ha: 0 to 29% for the first, 85 to 94% for the second.

Same assay, conditions: post-emergence, 336 h, ECHCG: barnyardgrass (Echinochloa crus-galli), 140 g ai/ha, 14 days after application, read-out: Visual Growth Reduction (%) 14 Days After Application, ECHCG

Compared with `COC(=O)c1nc(-c2ccc(Cl)cc2)c(N)cc1Cl` [F72, methyl 5-amino-3-chloro-6-(4-chlorophenyl)picolinate], `COC(=O)c1nc(-c2cc3c(cc2Cl)OC(F)(F)O3)ccc1Cl` [F124, Methyl 3-chloro-6-(6-chloro-2,2-difluorobenzo[d] [1,3]dioxol-5-yl)picolinate] is higher in pest or weed control at 140 g/ha: 0 to 29% for the first, 75 to 84% for the second.

Same assay, conditions: post-emergence, 336 h, IPOHE: ivy-leaf morning glory (Ipomoea hederacea), 140 g ai/ha, 14 days after application, read-out: Visual Growth Reduction (%) 14 Days After Application, IPOHE

With `COC(=O)c1nc(-c2cc3c(cc2Cl)OC(F)(F)O3)ccc1Cl` [F124, Methyl 3-chloro-6-(6-chloro-2,2-difluorobenzo[d] [1,3]dioxol-5-yl)picolinate] the pest or weed control at 140 g/ha was 95 to 100%.

Same assay, conditions: post-emergence, 336 h, KCHSC: kochia (Bassia scoparia), 140 g ai/ha, 14 days after application, read-out: Visual Growth Reduction (%) 14 Days After Application, KCHSC

`COC(=O)c1nc(-c2cc3c(cc2Cl)OC(F)(F)O3)ccc1Cl` [F124, Methyl 3-chloro-6-(6-chloro-2,2-difluorobenzo[d] [1,3]dioxol-5-yl)picolinate] was tested, and the pest or weed control at 140 g/ha was 45 to 59%.

Same assay, conditions: post-emergence, 336 h, ORYSA: rice (Oryza sativa), 140 g ai/ha, 14 days after application, read-out: Visual Growth Reduction (%) 14 Days After Application, ORYSA

`COC(=O)c1nc(-c2ccc(Cl)cc2)c(N)cc1Cl` [F72, methyl 5-amino-3-chloro-6-(4-chlorophenyl)picolinate] and `COC(=O)c1nc(-c2cc3c(cc2Cl)OC(F)(F)O3)ccc1Cl` [F124, Methyl 3-chloro-6-(6-chloro-2,2-difluorobenzo[d] [1,3]dioxol-5-yl)picolinate] fall in the same range of pest or weed control at 140 g/ha: 0 to 29% for the first, 0 to 29% for the second.

Same assay, conditions: post-emergence, 336 h, SETFA: giant foxtail (Setaria faberi), 140 g ai/ha, 14 days after application, read-out: Visual Growth Reduction (%) 14 Days After Application, SETFA

First: COC(=O)c1nc(-c2ccc(Cl)cc2)c(N)cc1Cl [F72, methyl 5-amino-3-chloro-6-(4-chlorophenyl)picolinate]
Second: COC(=O)c1nc(-c2cc3c(cc2Cl)OC(F)(F)O3)ccc1Cl [F124, Methyl 3-chloro-6-(6-chloro-2,2-difluorobenzo[d] [1,3]dioxol-5-yl)picolinate]
The pest or weed control at 140 g/ha of the first is lower: 0 to 29% for the first, 30 to 44% for the second.

Same assay, conditions: post-emergence, 336 h, SORVU: grain sorghum (Sorghum vulgare), 140 g ai/ha, 14 days after application, read-out: Visual Growth Reduction (%) 14 Days After Application, SORVU

Compared with `COC(=O)c1nc(-c2ccc(Cl)cc2)c(N)cc1Cl` [F72, methyl 5-amino-3-chloro-6-(4-chlorophenyl)picolinate], `COC(=O)c1nc(-c2cc3c(cc2Cl)OC(F)(F)O3)ccc1Cl` [F124, Methyl 3-chloro-6-(6-chloro-2,2-difluorobenzo[d] [1,3]dioxol-5-yl)picolinate] is higher in pest or weed control at 140 g/ha: 0 to 29% for the first, 75 to 84% for the second.

Same assay, conditions: post-emergence, 336 h, STEME: common chickweed (Stellaria media), 140 g ai/ha, 14 days after application, read-out: Visual Growth Reduction (%) 14 Days After Application, STEME

`COC(=O)c1nc(-c2ccc(Cl)cc2)c(N)cc1Cl` [F72, methyl 5-amino-3-chloro-6-(4-chlorophenyl)picolinate] and `COC(=O)c1nc(-c2cc3c(cc2Cl)OC(F)(F)O3)ccc1Cl` [F124, Methyl 3-chloro-6-(6-chloro-2,2-difluorobenzo[d] [1,3]dioxol-5-yl)picolinate] fall in the same range of pest or weed control at 140 g/ha: 0 to 29% for the first, 0 to 29% for the second.

Same assay, conditions: post-emergence, 336 h, TRZAS: wheat, spring (Triticum aestivum), 140 g ai/ha, 14 days after application, read-out: Visual Growth Reduction (%) 14 Days After Application, TRZAS

First: COC(=O)c1nc(-c2ccc(Cl)cc2)c(N)cc1Cl [F72, methyl 5-amino-3-chloro-6-(4-chlorophenyl)picolinate]
Second: COC(=O)c1nc(-c2cc3c(cc2Cl)OC(F)(F)O3)ccc1Cl [F124, Methyl 3-chloro-6-(6-chloro-2,2-difluorobenzo[d] [1,3]dioxol-5-yl)picolinate]
The pest or weed control at 140 g/ha of the first is lower: 0 to 29% for the first, 60 to 74% for the second.
